Results on two compounds are retold here after US20240285627A1, “DRUG COMBINATION OF FAK INHIBITOR AND IMMUNOGENIC CELL DEATH INDUCER AND USE THEREOF” (INXMED (NANJING) CO., LTD., priority 2022, published 2024).

Test [1] relates to Mouse colon cancer CT26 cells. Briefly: CT26 cells with IN10018 and Lurbinectedin: microscope and flow cytometry for CRT / Annexin V (Example 2). Type of test: cell-based. To be noted: CT26, 48 hours; IN10018 5 μM, Lurbinectedin 0.00142 μM. The method, then:
Mouse colon cancer CT26 cells (Insitute of Biochemistry and Cell Biology) were cultured with RPMI-1640 (Shanghai Basalmedia, classification number: L210KJ, batch number: F210916)+10% FBS (Gibco, classification number: 10099-141c, batch number: 2158737cp) and passaged twice. When the cells were in good condition, the culture solution was placed in a 24-well plate. After the cells were spread for 24 hours, four groups were set up, wherein the first group was a control group, and the culture medium was added; the second group was IN10018 with a concentration of 5 μM; the third group was Lurbinectedin (DC chemicals, classification number: DC12502, batch number: DC1250203) with a concentration of 0.00142 μM; and the fourth group was IN10018 (5 μM) combined with Lurbinectedin (0.00142 μM). The drugs were mixed and the mixture was cultured in a 5% CO2 incubator at 37° C. for 48 hours.
After 48 hours of drug action, the cells were observed under a microscope and photographed, and the photos were kept. Then the cells were collected, subjected to flow analysis, and washed twice with flow buffer (PBS+2% FBS). 0.5 μl of AF647 anti-Calreticulin antibody (abcam, classification number: ab196159, batch number: CR33676773) was added to each well and fully mixed. […] The mixture was cultured at room temperature in the dark for 15 minutes, and then analyzed by flow cytometry.

Test [2] has as its system KPL tumor. Briefly: Anti-tumor efficacy in KPL model in C57BL/6 mice (Example 12). As to conditions: MRTX133 5 mg/kg IP BID, ANTI MOUSE PD-1 10 mg/kg IP BIW, IN10018 25 mg/kg PO QD. Type of test: in vivo. The method, then:
45 female C57BL/6 mice, 6-8 weeks old and 19 to 25 g in weight, were used in this study. The mice, marked by ear coding, were kept in Individual Ventilation Cages at constant temperature (20-26° C.) and humidity (40%-70%) with 3 animals in each cage. Animals had free access to irradiation sterilized dry granule food (Keao Xieli (Tianjin) Feed Co., Ltd) and sterile drinking water during the entire study period.
KPL cells were maintained in vitro in RPMI-1640 medium supplemented with 10% FBS and 1% P.S. at 37° C. in an atmosphere of 5% CO2 in air. The tumor cells were routinely sub-cultured three times weekly. KPL cells growing in an exponential growth phase were resuspended in PBS and adjusted concentration to 2×10^6/mL for tumor injection.
Each mouse was injected subcutaneously at the right flank with 0.1 mL KPL cell suspension (0.2×10^6) for tumor development. When tumor reach around 60 mm^3 on the 7th day after cell injection, mice were randomly grouped according to tumor volume, followed by drug administration. The day of grouping was defined as day 0.
The major endpoint is to see if the tumor growth can be delay or mice can be cured. Tumor sizes were measured three times weekly in two dimensions using a caliper (No. 105688, sylvac Dantsin), and the volume was expressed in mm^3 using the formula: V=0.5×a×b^2 (a, long diameters; b, short diameters). The tumor sizes were then used for the calculations of T/C (%) values. T/C (%) was calculated using the formula: T/C (%)=(Ti−T0)/(Vi−V0)×100%, Ti was the average tumor volume of a treatment group on a given day, T0 was the average tumor volume of the treatment group on the first day of treatment, Vi was the average tumor volume of the vehicle control group on the same day with Ti, and V0 was the average tumor volume of the vehicle group on the first day of treatment.
TGI was calculated for each group using the formula: TGI (%)=100%-T/C (%).
Efficacy study was euthanized on D28 after treatment according to requirement, tumors were collected and photographed, tumor weight were recorded meanwhile. Tumors were selected from each group and stored in 10% Formalin for the following research.
Summary statistics, including mean and the standard error of the mean (SEM), are provided for the tumor volume of each group at each time point. Statistical analysis of difference in tumor volume and tumor weight versus Vehicle group were conducted on the data obtained at each time point. T-test was performed to compare tumor volume among groups. A value of p<0.05 was considered to be statistically significant.

`COc1cc(C(=O)NC2CCN(C)CC2)c(F)cc1Nc1ncc(C(F)(F)F)c(Oc2cccc3c2C(=O)N(C)C3)n1` [IN10018]: the “cell state under a microscope” value in test [1] is on record as “good”.
Take `C#Cc1c(F)ccc2cc(O)cc(-c3ncc4c(N5CC6CCC(C5)N6)nc(OC[C@@]56CCCN5C[C@H](F)C6)nc4c3F)c12` [MRTX1133]: the “T/C (%)” value was 15.72% in test [2] (Day 3 after treatment); −50.80% in test [2] (Day 7 after treatment); 2.69% in test [2] (Day 10 after treatment); 30.94% in test [2] (Day 14 after treatment); 56.17% in test [2] (Day 17 after treatment); 58.22% in test [2] (Day 21 after treatment). The “T/C (%)” value came out at 61.87% in test [2] (Day 24 after treatment) and 71.43% in test [2] (Day 28 after treatment). The “TGI (%)” value is reported as 84.28% in test [2] (Day 3 after treatment); 150.80% in test [2] (Day 7 after treatment); 97.31% in test [2] (Day 10 after treatment); 69.06% in test [2] (Day 14 after treatment); 43.83% in test [2] (Day 17 after treatment); 41.78% in test [2] (Day 21 after treatment). The “TGI (%)” value stood at 38.13% in test [2] (Day 24 after treatment) and 28.57% in test [2] (Day 28 after treatment). This compound gave a tumor volume in test [2] (day 28) of 579.34 mm^3.
